How the values were obtained:
[1] = tested on: BRAF-mutant, BRAF deletion mutation and NRAS-mutant xenograft tumor models; set-up: method as in doi:10.1016/S1359-6349(10)71810-3; details: cited from earlier work
BRAF = tested on: BRAF; set-up: method as in PMID 28082416; details: cited from earlier work
wild-type BRAF = tested on: wild-type BRAF; set-up: method as in doi:10.1016/S1359-6349(10)71810-3; details: preclinical studies; cited from earlier work
[2] = tested on: neural progenitor cells transformed with KIAA1549-BRAF fusion protein; set-up: method as in PMID 28082416; details: cited from earlier work
[3] = tested on: relapsed or refractory advanced solid tumors, melanoma; experiment: response by investigator assessment (RECIST 1.1); type: in vivo, human
Description: Adverse events were coded using the Medical Dictionary for Regulatory Activities (MedDRA) Version 19.0 and were graded according to the National Cancer Institute (NCI) Common Terminology Criteria (CTC) for adverse events (CTCAE) (Version 4.03). The assessment period for treatment emergent adverse events (TEAEs) was from the first dose of study treatment to 30 days after the last dose of study medication, or until the start of subsequent antineoplastic therapy, whichever occurred first. Following baseline evaluation, response was assessed by investigators every two cycles by computed tomography or magnetic resonance imaging according to Response Evaluation Criteria in Solid Tumors (version 1.1).
The safety population was defined as all patients who received any amount of tovorafenib. The DLT-evaluable population was defined as all patients in the dose escalation phase of the study who either experienced DLT during cycle 1 or who completed at least 75% of the planned doses and had sufficient follow-up data to allow the investigators and sponsor to determine whether DLT had occurred. […] The PK-evaluable population included all patients who had sufficient dosing data and concentration–time data to permit calculation of PK parameters.

[4] = tested on: relapsed or refractory advanced solid tumors, melanoma; set-up: method as in ref 25 = [25]; 25. Medina T Barry E Govinda Raju S Blackman S Gonzalez R Prolonged complete response to the pan-RAF inhibitor DAY101 in a patient with an NRAS -mutated acral lentiginous melanoma Pigment Cell Melanom; details: one patient, NRAS-mutated melanoma, cited from earlier work
[5] = dose expansion Cohort 1, BRAF+ Naïve, Q2D n = 16
[6] = dose expansion Cohort 2, BRAF+ Previously treated, Q2D n = 6
[7] = dose expansion Cohort 3, NRAS+ Naïve, Q2D n = 14
[8] = dose expansion Cohort 4, NRAS + Previously treated, Q2D n = 1
[9] = dose expansion Cohort 5, BRAF/NRAS WT Naïve, Q2D n = 6
[10] = dose expansion Cohort 6, BRAF/NRAS WT Previously, Q2D n = 9
[11] = dose expansion Cohort 9, NRAS+ Naïve, QW n = 17
[12] = dose expansion, Q2D n=68 (melanoma cohorts, PK cohort, unknown)

C[C@@H](NC(=O)c1ncnc(N)c1Cl)c1ncc(C(=O)Nc2cc(C(F)(F)F)c(Cl)cn2)s1 [tovorafenib]
p-ERK suppression [1]: strong and sustained p-ERK suppression | affinity for monomeric versus dimeric forms of BRAF (BRAF): equal affinity | IC50 (wild-type BRAF): 10.1 nM | paradoxical activation of ERK signaling [2]: not to trigger paradoxical activation of ERK signaling | median PFS ([3]; BRAF mutation-positive, RAF and MEK inhibitor-naïve cohort, 95% CI 1.9–14.3): 5.7 months | sustained PFS in an individual patient ([3]; BRAF mutation-positive, RAF and MEK inhibitor-naïve cohort, in response and on treatment at data cutoff): 45 months | duration of stable disease in one patient ([3]; NRAS-mutated melanoma, cohort 7): 42 months | best response of stable disease ([3]; Q2D dose escalation, 5 of 22 evaluable patients): 23% | responses ([3]; Q2D dose escalation, 22 evaluable patients): no responses | Objective response rate ([3]; Q2D expansion phase, 10 of 68 evaluable patients, 95% CI 7–25): 15% | median duration of response ([3]; Q2D expansion, 68 evaluable patients): 6.0 months | median progression-free survival (PFS) ([3]; Q2D expansion, 68 evaluable patients, 95% CI 1.8–3.6): 1.9 months | partial responses ([3]; QW dose escalation, 2 in 14 evaluable patients (endometrial cancer 600 mg, thyroid cancer 800 mg)): 14% | best response of stable disease ([3]; QW dose expansion, 9 of 17 evaluable patients): 53% | responses ([3]; QW dose expansion, 17 evaluable patients, NRAS mutation-positive melanoma naïve to RAF and MEK inhibitors): no responses | responses (partial) ([3]; cohort 1, BRAF mutation-positive melanoma, RAF and MEK inhibitor-naïve, Q2D, 8 of 16): 50% | responses ([3]; cohort 2, BRAF mutation-positive, RAF and MEK inhibitor-previously treated, Q2D, 1 of 6): 17% | responses ([3]; cohort 3, NRAS mutation-positive, RAF and MEK inhibitor-naïve, Q2D, 1 of 14): 7% | Best overall response: Complete response ([3]; dose escalation, Q2D n = 22): 0 n (%) | Best overall response: Partial response ([3]; dose escalation, Q2D n = 22): 0 n (%) | Best overall response: Progressive disease ([3]; dose escalation, Q2D n = 22): 17 (77) n (%) | Best overall response: Stable disease ([3]; dose escalation, Q2D n = 22): 5 (23) n (%) | Objective response rate ([3]; dose escalation, Q2D n = 22): 0 n (%) | Best overall response: Complete response ([3]; dose escalation, QW n = 14): 0 n (%) | Best overall response: Partial response ([3]; dose escalation, QW n = 14): 2 (14) n (%) | Best overall response: Progressive disease ([3]; dose escalation, QW n = 14): 8 (57) n (%) | Best overall response: Stable disease ([3]; dose escalation, QW n = 14): 4 (29) n (%) | Objective response rate ([3]; dose escalation, QW n = 14): 2 (14) n (%) | Best overall response: Complete response ([3]; dose escalation, Total n=36): 0 n (%) | Best overall response: Partial response ([3]; dose escalation, Total n=36): 2 (6) n (%) | Best overall response: Progressive disease ([3]; dose escalation, Total n=36): 25 (69) n (%) | Best overall response: Stable disease ([3]; dose escalation, Total n=36): 9 (25) n (%) | Objective response rate ([3]; dose escalation, Total n=36): 2 (6) n (%) | Best overall response: Complete response [3, 5]: 0 n (%) | Best overall response: Partial response [3, 5]: 8 (50) n (%) | Best overall response: Progressive disease [3, 5]: 6 (38) n (%) | Best overall response: Stable disease [3, 5]: 2 (13) n (%) | Objective response rate [3, 5]: 8 (50) n (%) | Best overall response: Complete response [3, 6]: 0 n (%) | Best overall response: Partial response [3, 6]: 1 (17) n (%) | Best overall response: Progressive disease [3, 6]: 2 (33) n (%) | Best overall response: Stable disease [3, 6]: 3 (50) n (%) | Objective response rate [3, 6]: 1 (17) n (%) | Best overall response: Complete response [3, 7]: 0 n (%) | Best overall response: Partial response [3, 7]: 1 (7) n (%) | Best overall response: Progressive disease [3, 7]: 9 (64) n (%) | Best overall response: Stable disease [3, 7]: 4 (29) n (%) | Objective response rate [3, 7]: 1 (7) n (%) | Best overall response: Complete response [3, 8]: 0 n (%) | Best overall response: Partial response [3, 8]: 0 n (%) | Best overall response: Progressive disease [3, 8]: 1 (100) n (%) | Best overall response: Stable disease [3, 8]: 0 n (%) | Objective response rate [3, 8]: 0 n (%) | Best overall response: Complete response [3, 9]: 0 n (%) | Best overall response: Partial response [3, 9]: 0 n (%) | Best overall response: Progressive disease [3, 9]: 5 (83) n (%) | Best overall response: Stable disease [3, 9]: 1 (17) n (%) | Objective response rate [3, 9]: 0 n (%) | Best overall response: Complete response [3, 10]: 0 n (%) | Best overall response: Partial response [3, 10]: 0 n (%) | Best overall response: Progressive disease [3, 10]: 6 (67) n (%) | Best overall response: Stable disease [3, 10]: 3 (33) n (%) | Objective response rate [3, 10]: 0 n (%) | Best overall response: Complete response [3, 11]: 0 n (%) | Best overall response: Partial response [3, 11]: 0 n (%) | Best overall response: Progressive disease [3, 11]: 8 (47) n (%) | Best overall response: Stable disease [3, 11]: 9 (53) n (%) | Objective response rate [3, 11]: 0 n (%) | Best overall response: Complete response [3, 12]: 0 n (%) | Best overall response: Partial response [3, 12]: 10 (15) n (%) | Best overall response: Progressive disease [3, 12]: 37 (54) n (%) | Best overall response: Stable disease [3, 12]: 21 (31) n (%) | Objective response rate [3, 12]: 10 (15) n (%) | Best overall response: Complete response ([3]; dose expansion, QW n=17): 0 n (%) | Best overall response: Partial response ([3]; dose expansion, QW n=17): 0 n (%) | Best overall response: Progressive disease ([3]; dose expansion, QW n=17): 8 (47) n (%) | Best overall response: Stable disease ([3]; dose expansion, QW n=17): 9 (53) n (%) | Objective response rate ([3]; dose expansion, QW n=17): 0 n (%) | Best overall response: Complete response ([3]; dose expansion, Total n=85): 0 n (%) | Best overall response: Partial response ([3]; dose expansion, Total n=85): 10 (12) n (%) | Best overall response: Progressive disease ([3]; dose expansion, Total n=85): 45 (53) n (%) | Best overall response: Stable disease ([3]; dose expansion, Total n=85): 30 (35) n (%) | Objective response rate ([3]; dose expansion, Total n=85): 10 (12) n (%) | treatment time until complete response was reported ([4]; single patient IND after the study): 7 months | duration for which complete response has been sustained ([4]; single patient IND, continued treatment): 8 years

Reference: paper PMC10261210 (Cancer Chemotherapy and Pharmacology, 2023)
